# Source: paper PMC7018645, “Hijacking the Fusion Complex of Human Parainfluenza Virus as an Antiviral Strategy” (mBio, 2020)
# Read-outs that look alike come from different tables or passages of the source.
# What was measured:
# [1] = test system: HPIV3 clinical isolate (CI-1) eGFP
# mCherry-HPIV3 [2] = test system: mCherry-HPIV3
# [3] = test system: clinical isolate HPIV3 HN; assay: Hemadsorption (HAD) assay of HN-receptor binding; assay type: cell-based, human parainfluenza virus type 3; conditions: cells expressing clinical strain HN, RBC binding
# Method: We assessed the effect of PAC-3066 on HPIV3 HN-receptor binding in a hemadsorption (HAD) assay that quantitates the binding of sialic acid receptor-bearing erythrocytes (RBC) to HN/F-coexpressing cells.
# (§1) (A) Sensitivity of HN-receptor binding to viral entry inhibitors of cell monolayers expressing clinical isolate HPIV3 HN, incubated with either PAC-3066, zanamivir, or DMSO. Percent inhibition relative to that for DMSO-treated cells is shown. Each point represents the mean from 3 experiments, each of which was performed in triplicate, ± SEM. […] Each bar represents the results from triplicate experiments, each of which was performed in triplicate, ± SEM.
# Hemadsorption (HAD) was performed and quantified as previously described ([13]). Briefly, the growth medium was aspirated from HN-transfected 293T cell monolayers in 48-well BioCoat plates (Becton Dickson Labware), the medium was replaced with 150 μl of CO2-independent medium (pH 7.3; Gibco) containing different concentrations of compounds and 1% RBC in serum-free CO2-independent medium, and the plates were placed at 4°C for 30 min. The wells were then washed three times with 150 μl cold CO2-independent medium. The bound RBCs were lysed with 200 μl RBC lysis solution (0.145 M NH4Cl, 17 mM Tris HCl), and the absorbance at 405 nm was read using a Tecan M-1000 Pro microplate reader.
# [4] = test system: HPIV3 clinical isolate (CI-1) eGFP; assay: microbe, parasite or virus in culture; conditions: Human respirovirus 3, read-out: IC50 for inhibition of viral entry
# [5] = test system: HPIV3 clinical isolate HN neuraminidase; assay: Neuraminidase activity on cell monolayers expressing HN; assay type: biochemical, human parainfluenza virus type 3; conditions: 37°C, pH 5
# Method: as §1
# Assays for the measurement of neuraminidase activity were performed in transiently transfected 293T cell monolayers, as described previously ([13], [34], [82]). Briefly, 293T cells expressing HN were added to 96-well plates in CO2-independent medium at pH 5.0. After adding reaction mixtures containing 20 mM 2′-(4-methylumbelliferyl)-alpha-D-N-acetylneuraminic acid (Toronto Research Chemicals Inc.) substrate and different concentrations of the compounds, the plates were incubated at 37°C for 1 h. Throughout this period, the fluorescence resulting from hydrolysis of the substrate was read at a 365-nm excitation wavelength and a 450-nm emission wavelength using a Tecan M-1000 Pro microplate reader.
# mCherry-HPIV3 [6] = assay: microbe, parasite or virus in culture; conditions: Human respirovirus 3, Vero, read-out: IC50 of pure compound (inhibition of viral spread)
Compound,inhibition of viral infection by HPIV3 [1],combination effect with zanamivir (mCherry-HPIV3 [2]; PAC-3066 concentrations below 250 μM),antagonism with zanamivir (mCherry-HPIV3 [2]; all pairwise combinations),"combination effect with zanamivir (mCherry-HPIV3 [2]; higher PAC-3066 concentrations, e.g. 1,000 μM)","combination effect with zanamivir (mCherry-HPIV3 [2]; range of zanamivir/PAC-3066 ratios, strongest at 1:1, 1:3 or greater, PAC-3066 250 μM, Combenefit)",effect on HN-receptor binding [3],IC50 [4] [µM],effect on viral neuraminidase activity [5],IC50 (mCherry-HPIV3 [6]) [µM]
"N#CCc1cc(NS(=O)(=O)c2cccs2)ccc1O [CM9, reference compound]",inhibited viral infection by HPIV3,–,–,–,–,–,–,–,–
CC(=O)Nc1cc(NS(=O)(=O)c2ccc(F)cc2F)ccc1O [PAC-3066],inhibited viral infection by HPIV3,only additive effects were observed,No significant antagonism was observed,no synergy,strong synergy,did not affect receptor binding,~37,no inhibitory effect,308
"CC(=O)N[C@H]1[C@H]([C@H](O)[C@H](O)CO)OC(C(=O)O)=C[C@@H]1N=C(N)N [zanamivir, reference compound]",–,–,–,–,–,inhibits HN-receptor binding,–,inhibits HPIV3 HN’s neuraminidase,–
